Test results: the METLIN SMRT retention time set (Domingo-Almenara et al. 2019)

Assay: gradient 5% acetonitrile 3 min, to 50% in 2 min, to 85% in 15 min, held 3 min, 100 µL/min
Settings: column: Zorbax Extend-C18 2.1 x 50 mm; eluents: water / acetonitrile, 0.1% formic acid
Method in brief: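 Retention time was recorded from adduct peaks, which were picked computationally and each inspected manually. Pure standards ran in mixtures of ~100 molecules on HPLC coupled to a quadrupole time-of-flight mass spectrometer, in positive and negative ionization mode, through a Zorbax Extend-C18 column (2.1 × 50 mm, 1.8 μm) at 100 μL/min. Eluents were water and acetonitrile, each with 0.1% formic acid.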

Structure (SMILES)	RP-LC retention time [s]
CSc1cccc(NC(=O)C2CCN(S(=O)(=O)c3cn(C(C)C)cn3)CC2)c1	812
Cc1cc(C)c(S(=O)(=O)N2CCCC2c2nc(-c3ccccc3C)no2)cc1C (centres undefined)	1300
Cc1ccoc1C(=O)N[C@@H]1CN(c2ncccn2)C[C@H]1CO	588
O=C(Cn1cccc1-c1nnc(-c2ccccc2)o1)N1CCN(C(=O)c2ccco2)CC1	774
CCn1c(=O)c(N2CCCC(C(=O)N3CCCCCC3)C2)nc2cccnc21 (centres undefined)	1000
Cc1ccc(CNC(=O)c2sc(-c3cn(C)c4ncccc34)nc2C)cc1	784
CCC(=O)N1CCc2ccccc2C1C(=O)N1CCN(c2ccccc2)CC1 (centres undefined)	852
Cc1cc(-c2nnc(-c3ccco3)o2)c(C)n1CC(=O)Nc1cccc(Cl)c1	920
C=CCN(CC=C)S(=O)(=O)c1ccc(C(=O)N2CCCc3ccccc32)cc1	985
Cc1sc2ccn(Cc3ccc(F)cc3)c(=O)c2c1C(=O)NC1CCCCC1	973
CCn1cc(S(=O)(=O)N2CCC(N3CC4(CCCCC4)C3c3ccccc3)CC2)cn1 (centres undefined)	660
CCc1ccc(Nc2cc(C(=O)N3CCC(C)CC3)nc3cc(OC)c(OC)cc23)cc1	832
O=c1ccc(-c2cccs2)nn1CCCNS(=O)(=O)c1cccc(Cl)c1Cl	856
CC(C(=O)NCc1ccco1)C1CCN(C(=O)c2cc3cc(Cl)ccc3[nH]2)CC1 (centres undefined)	841
COc1ccc(C2Cn3cnc(C(=O)N4CCC(C(=O)NC5CCCCCC5)CC4)c3CO2)cc1 (centres undefined)	797
CN(CCCNC(=O)Cn1c(=O)c2cccn2c2ccccc21)Cc1ccccc1	631
CNC(=O)C1CCCN(c2nc3ncn(CC(=O)Nc4ccc(Cl)cc4)c(=O)c3s2)C1 (centres undefined)	685
CCn1ccc(C(=O)N2CCc3c(-c4ccc(OC)cc4)cccc3[C@H]2C)n1	966
Cc1ccccc1NC(=O)/C=N/O	636
CCOc1cc(-c2noc(-c3nnn4c3COC(c3ccc(C)cc3C)C4)n2)ccc1OC (centres undefined)	1250
CCOc1ccc(C(=O)NCc2ccc3c(c2)Sc2ncccc2C(=O)N3CC)cc1	791
COc1ccc(-c2ccnc3nc(-c4cccs4)nn23)cc1OC	832
O=C(CCCSc1ccc(NC(=O)c2cccs2)nn1)NCc1ccco1	714

Structure (SMILES)	RP-LC retention time [s]
Cc1cc(=O)n(CC(=O)NCc2ccc(F)cc2F)c(N2CCCCC2)n1	657
Cc1c([C@@H](C)C2NC[C@@H](C)C[C@H]2O)ccc2c1C[C@@H]1[C@H]2CC=C2C[C@@H](O)CC[C@@]21C (some centres undefined)	749
O=C(NC1CCc2nnc(C3CC3)n2CC1)c1ccc(Cn2cncn2)o1 (centres undefined)	558
O=S(=O)(Cc1ccccc1)N1CCC(Cc2nncn2-c2ccccc2)CC1	1080
O=C(CCCc1nc2cccnc2n1Cc1ccccc1)N1CCN(c2ccccn2)CC1	603
CC1CCCN(S(=O)(=O)c2ccc(-n3cnc(C(=O)NC4CC4)c3)nc2)C1 (centres undefined)	798
COc1ccc(-c2ncc3c(n2)CCN(C(=O)Nc2ccccc2Br)C3)cc1	961
CCOc1ccc(NC(=O)c2cn3c4c(ccc(Cl)c4c2=O)OCC3)cc1	657
COc1ccccc1CNC(=O)c1nnc(-c2ccc(S(=O)(=O)N(C)C)cc2)o1	852
CCCn1ncc(N2CCC(C(=O)NCc3cccc(F)c3)CC2)cc1=O	706
Cc1ccc(NC(=O)Cn2ccc3sccc3c2=O)cc1Cl	830
Cc1ccc(-c2ccc(N3CCCC(C(=O)NCc4ccc5c(c4)OCO5)C3)nn2)cc1 (centres undefined)	732
Cc1noc(C)c1-c1ccc(S(=O)(=O)N2CCN(c3ccccc3)CC2)cc1	1080
CCN1CCN(Cc2nc(-c3ccc(N4CCCC(C)C4)nc3)no2)CC1 (centres undefined)	610
CC(C)C(=O)n1nc(-c2ccccc2)nc1N	888
CCCCNC(=O)C1CCN(c2cnn(Cc3ccccc3)c(=O)c2)CC1	752
Cc1[nH]c(=O)[nH]c(=O)c1CCC(=O)Nc1cccc(-c2nc3ccccc3s2)c1	672
CN1c2cc(F)ccc2C(=O)NC12CCN(C(=O)NCCc1ccccc1)CC2	761
CCc1ccc(-c2csc(NC3OC(=O)c4ccccc43)n2)cc1 (centres undefined)	833
O=C(NCCO)c1cccc(-c2cc(Nc3ccc(OC(F)(F)F)cc3)ncn2)c1	793
O=C(Nc1c(C(=O)Nc2ccccc2F)oc2ccccc12)c1ccc(Br)o1	1190
CCN1CCN(CCNC(=O)C2CCCN(S(=O)(=O)N(C)c3ccc(F)cc3)C2)CC1 (centres undefined)	551
CC(C)C(=O)c1c(C(C)C)nn2ccccc12	1010

Structure (SMILES)	RP-LC retention time [s]
CCn1cc2c3c(cccc31)CN(C(=O)Nc1ccc(C)cc1)CC2	978
COc1cc(C(=O)NC(C)COc2ccc(C(C)C)cc2)cc(OC)c1OC (centres undefined)	965
O=C(NC1CC1)c1ccc2c(c1)CCCN2S(=O)(=O)c1ccc(Cl)cc1	896
Cc1oc(C2CCN(C(=O)Cc3c(F)cccc3Cl)CC2)nc1C(=O)N1CCCC1	848
Cn1cnc(S(=O)(=O)N2CC(c3nc(CCOCc4ccccc4)no3)C2)c1	745
CN(C)CCn1nnc2cc(-c3noc(-c4cccc(F)c4)n3)ccc21	676
CCCn1c(=O)c(N2CCC(NC(=O)NC3CCCCC3)CC2)nc2ccccc21	953
Cc1sc(NC(=O)C2CCCCC2)nc1-c1ccc2c(c1)NC(=O)C(C)O2 (centres undefined)	940
COc1cccc(-c2noc(CN3C(=O)COc4ccc(Cl)cc43)n2)c1	1070
COc1cccc(CN2CCC3(CC2)CN(c2ncccn2)CC3CO)n1 (centres undefined)	562
CC1CCCCN1c1ccn2c(=O)n(CC(=O)Nc3ccc(F)cc3)nc2n1 (centres undefined)	759
Cc1ccc2c(c1)cc(S(=O)(=O)c1ccccc1)c(=O)n2CC(=O)NC1CCCC1	903
Cc1cccn2c(NC(=O)c3cc4ccccc4oc3=O)c(-c3ccccc3)nc12	695
O=C(NC1CC1)c1ccc(-c2ccsc2)nc1	688
O=C(CCc1ccc2cc[nH]c2c1)NCc1ccccc1	794
COc1ccc2c(c1)C1(CCN(C(=O)c3ccccc3OC)C1)C(=O)N2 (centres undefined)	709
CCn1c(CCNC(=O)c2ccc(Cl)cc2)nc2cccnc21	653
Cc1noc(C)c1CC(=O)NCc1nnc2n1CCCC2	559
CCc1nnc2ccc(NCC3CCCO3)nn12 (centres undefined)	646
Cc1ccc(C(=O)NCc2[nH]nc3ccccc23)cc1C	788
Cc1ccc(CNC(=O)c2ccc3c(c2)CC(=O)N3C)cc1C	765
CCCC(=O)Nc1cc2c(cc1S(=O)(=O)c1ccc(C)cc1)n(C)c(=O)n2C	824
CCN1CCN(CCNC(=O)C2CCCN(C(=O)c3[nH]c(C)c(C(=O)OC)c3C)C2)CC1 (centres undefined)	565

Structure (SMILES)	RP-LC retention time [s]
CCNC(=O)c1nnc(-c2ccc(S(=O)(=O)N3CCC(C)CC3)cc2)o1	875
COc1cccc(C2Cn3nnc(-c4nc(-c5cccc(Cl)c5)no4)c3CO2)c1 (centres undefined)	1250
Cc1ccc(C(C)NC(=O)c2ccc(CN3CCN(C(C)C)C(=O)C3=O)cc2)c(C)c1 (centres undefined)	761
COc1ccc(N2CCN(c3ncc(C(=O)O)c(C)n3)CC2)cc1	713
CCn1nccc1-c1cccc(-c2noc(C(NC(=O)c3ccco3)C(C)C)n2)c1 (centres undefined)	973
Cc1noc(C)c1-c1ccc(S(=O)(=O)N2CCCC2)cc1	951
COc1ccc(C(=O)Nc2ccc3c(c2)Sc2ncccc2C(=O)N3C(C)C)cc1F	894
CC(Oc1ccccc1F)C(=O)Nc1ccc(-c2nc(-c3ccc(F)cc3)no2)cc1 (centres undefined)	1260
CCOc1ccc(N2C(=O)CC(c3ccc(OC)cc3)CC2=O)cc1	942
COc1ccccc1NC(=O)N1CCCC1c1nc(-c2cccc(Cl)c2)no1 (centres undefined)	941
O=C(Nc1nc(-c2ccccc2)cs1)c1ccc(S(=O)(=O)N2CCCCC2)cc1	1150
CCc1cccc(NC(=O)Cc2nnc(-c3cnccn3)o2)c1	736
Cc1ccsc1CN1CCC(c2nc(-c3cnccn3)n[nH]2)CC1	567
CCOCCCNC(=O)CN1C(=O)C2CCCCN2c2ccc(C(=O)N3CCCC3)cc21 (centres undefined)	694
O=S(=O)(c1ccc(Cl)cc1)N1CCN(c2cnn3c(C4CC4)nnc3c2)CC1	749
COc1ccccc1CNC(=O)C1CCCN(c2nnc3ccccn23)C1 (centres undefined)	652
CCOC(=O)N1CCN(C(=O)Cn2c(-c3ccccn3)nc3ccccc32)CC1	643
CCn1c(=O)c(N2CCC(C(=O)NCCCN3CCCCC3C)CC2)nc2cccnc21 (centres undefined)	632
COc1ccc(Cn2c(=O)c3sccc3n(Cc3nc(-c4cccc(C)c4)no3)c2=O)cc1	1160
CC1Cc2ccccc2N1C(=O)Cc1csc(NC(=O)c2ccc(=O)[nH]c2)n1 (centres undefined)	647
